Experiments:
[1] = molecular target: T1, Aβ1-42 oligomers (Homo sapiens, UniProt P05067); experiment: Turbidity (right-angle light scattering at 633 nm) of peptides with Aβ1-42 oligomers; set-up: purchased Life Technologies; settings: 40 μM Aβ, Hepes pH 7.4
Description: Turbidity Measurements of Aromatic-Cationic Peptides Complexed with Aβ1-42 Oligomers: The turbidity of solutions containing aromatic-cationic peptides and/or Aβ1-42 oligomers was measured via right-angle scattering at λ=633 nm (Hitachi F-4500 Fluorescent Spectrophotometer). All experiments were conducted in Hepes (pH 7.4) and scanned immediately.

[2] = molecular target: T1, Aβ1-42 oligomers; experiment: Fluorescence emission spectra: interaction of peptide with Aβ1-42 oligomers; format: binding; set-up: purchased Life Technologies; settings: for shift of emission on contact with Aβ oligomers: 1 μM Aβ oligomers; for emission maximum (λmax) with Aβ oligomers: 20 mM Hepes pH 7.4, 1 μM Aβ oligomers
Description: Interaction of Aromatic-cationic Peptides with Aβ1-42 Oligomers:
D-Arg-2′,6′-Dmt-Lys-Ald-NH2 ([ald]SS-31) is an aladan (ald) containing derivative of D-Arg-2′,6′-Dmt-Lys-Phe-NH2 (SS-31). See Birk et al., J Am Soc Nephrol. 24(8): 1250-1261 (2013). […] Thus, interaction between D-Arg-2′,6′-Dmt-Lys-Ald-NH2 ([ald]SS-31) and phospholipids causes an observable shift in the fluorescence spectra of the peptide. See Birk et al., J Am Soc Nephrol. 24(8): 1250-1261 (2013). […] The fluorophore aladan was used as a control. All experiments were conducted in 20 mM Hepes (pH 7.4) so as to replicate an environment with physiological pH.

[3] = molecular target: T2, Aβ1-42-Cardiolipin-Cu^2+ complex (Homo sapiens, UniProt P05067); experiment: Aβ1-42-Cardiolipin-Cu2+ complex oxygenase activity (Amplex Red, no H2O2); format: biochemical; settings: for increase in Aβ1-42-mediated oxygenase activity compared to the non-metal treated control: 10 μM metal salt incubated with cardiolipin and Aβ1-42 oligomers; for reduction in Aβ1-42-mediated oxygenase activity compared to untreated controls: 10 μM peptide, 30 μM CuCl2, 50 μM Amplex Red; for reduction in Aβ1-42-mediated oxygenase activity compared to untreated controls / inhibition of Aβ1-42-mediated oxygenase activity compared to untreated controls: 30 μM TLCL; for inhibition of Aβ1-42-mediated oxygenase activity compared to untreated controls: 100 μM peptide; for inhibition of Cu2+-dependent stimulation of Aβ1-42-mediated oxygenase activity, dose dependence: FIG. 4B, varying peptide concentrations
T2 construct: purchased Life Technologies
Description: Oligomerization of Aβ1-42 Peptide: Aβ1-42 peptide was dissolved in 1.5 mL of a 1:1 water/acetonitrile solution. 500 μL aliquots were frozen in a methanol/dry ice cooling bath and then lyophilized. Once lyophilized, each aliquot was dissolved in 20 μL DMSO. The aliquots were then vortexed, centrifuged, and sonicated in a water bath at room temperature. 200 μL of filtered 1×PBS and 20 μL of 2% SDS were subsequently added. The Aβ1-42 peptide solution was incubated at 37° C. for 6 hours. 580 μL of water was subsequently added to the Aβ1-42 peptide solution, followed by a 16 hour incubation at 37° C. prior to being stored at 4° C.
Measurement of Aβ1-42-Cardiolipin-Cu^2+ Complex Oxygenase Activity:
Aβ1-42-Cardiolipin-Cu^2+ oxygenase activity was measured using the Amplex Red kit. Amplex Red is a dye that reacts with H2O2 in a 1:1 stoichiometric ratio to produce a highly fluorescent derivative called resorufin (λex/λem=570/585 nm). The presence of peroxidase activity in an Amplex reaction lacking H2O2 is an indicator of oxygenase activity resulting from the reaction between the Amplex Red reagent and oxygen in the solution. All experiments were conducted in the absence of H2O2. A measurement was immediately taken after the introduction of Amplex Red, the last reagent that was added to the reaction. The reaction was allowed to proceed for an additional 10 minutes. Continuous time course data over the 10-minute period was obtained using a microplate spectrofluorometer (Molecular Devices, Sunnyvale, Calif.).

[4] = molecular target: T1, Aβ1-42 oligomers; experiment: Transmission electron microscopy of Aβ fibril formation
[5] = 800 nM Aβ oligomers, 30 μM CuCl2

T2 sequence (P05067 672-713 limits assumed, one chain of several): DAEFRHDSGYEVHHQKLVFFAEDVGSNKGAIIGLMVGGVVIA
T1 sequence (P05067 672-713 limits assumed): as the sequence (P05067 672-713 limits assumed, one chain of several) above

Row | Compound | change in light scattering (turbidity) compared to Aβ1-42 oligomer control sample [1] | light scattering [1] | shift of emission on contact with Aβ oligomers [2] | emission maximum (λmax) with Aβ oligomers ([2]; 1 μM, λex=360 nm) [nm] | increase in Aβ1-42-mediated oxygenase activity compared to the non-metal treated control [3] [%] | reduction in Aβ1-42-mediated oxygenase activity compared to untreated controls ([3]; 800 nM Aβ oligomers) [%] | inhibition of Aβ1-42-mediated oxygenase activity compared to untreated controls [3, 5] | inhibition of Cu2+-dependent stimulation of Aβ1-42-mediated oxygenase activity, dose dependence [3] | other results
1 | CN(C)c1ccc2cc(C(=O)CC(N)C(=O)O)ccc2c1 (stereo not drawn) [Ald, β-(6′-dimethylamino-2′-naphthoyl)alanine, reference compound] | no change in turbidity | about 180 RFUs | no shift | 535 |  |  |  |  | 
2 | O=[N+]([O-])[O-].O=[N+]([O-])[O-].[Cu+2] [Cu(NO3)2, copper (II) nitrate hydrate, reference compound] |  |  |  |  | 500 |  |  |  | 
3 | [Cl][Cu][Cl] [CuCl2, copper (II) chloride, reference compound] |  |  |  |  | > 500 |  |  |  | 
4 | CCCCCC=CCC=CCCCCCCCC(=O)OCC(COP(=O)(O)OCC(O)COP(=O)(O)OCC(COC(=O)CCCCCCCC=CCC=CCCCCC)OC(=O)CCCCCCCC=CCC=CCCCCC)OC(=O)CCCCCCCC=CCC=CCCCCC (stereo not drawn) [TLCL, 1,1′,2,2′-tetralinoleoyl cardiolipin, reference compound] |  |  |  |  |  |  |  |  | stimulation of Aβ1-42-mediated oxygenase activity in the presence of Cu2+ ions by phospholipid [3, 5]: capable of stimulating
5 | D-Arg-2′,6′-Dmt-Lys-Ald-NH2 [[ald]SS-31] | six-fold increase |  | blue shift | 465 |  | 90 | complete inhibition | dose dependent | emission maximum (λmax) before Aβ oligomers ([2]; 1 μM, λex=360 nm, 20 mM Hepes pH 7.4, no Aβ): 535 nm; incubation time resulting in formation of Aβ fibrils ([4]; natural fibrillation takes at least seven days): 25 min; increase in the rate of fibril formation ([4]; versus natural fibrillation): 400 fold
6 | D-Arg-2′,6′-Dmt-Lys-Phe-NH2 [SS-31] | no change in turbidity | about 180 RFUs |  |  |  | 90 | complete inhibition | dose dependent | 

From patent publication US20160375088A1, “CARDIOLIPIN-TARGETED PEPTIDES INHIBIT BETA-AMYLOID OLIGOMER TOXICITY” (priority 2013, published 2016)
